How the values were obtained:
Format in all cases: cell-based
Hela = assay: Antiproliferative activity (MTS assay), Hela; conditions: Hela cells
Description: (§1) Antiproliferative effect is expressed as IC50 values in microMolar final concentration.
(§2) Cells were grown at 37° C. in a humidified atmosphere with 5% CO2 and 95% air. Cells were seeded in 96 well tissue culture plates.
(§3) Compound treatment started after overnight incubation of cells (TO). […] Compound was added to the plate in triplicate wells, and the plates were then incubated for 96 hours. DMSO (compounds diluents) was also included and added to the plate in control wells. Cell viability was then determined by MTS assay using CellTiter 96® AQueous non-radioactive cell proliferation assay system (Promega). A plate reader (Molecular Devices, Vmax) was used to read the optical densities, and the results were used to deduce concentration-response curves. […] The results were analyzed using linear regression software (GraphPad Prism 5; GraphPad Software Inc.).
(§4) The GI50 values (growth inhibitory activity) were determined to emphasize on the correction for the cell count at time zero; thus, the % inhibition of test drug were: [1−(T−T0)/(C−T0)]×100; and these value were used to plot the concentration-response curves, and then analyzed with linear regression software (GraphPad Prism 5).

K562 = assay: Antiproliferative activity (MTS assay), K562; conditions: K562 cells
Description: as §1, §2, §3, §4

MDA-MB-231 = assay: Antiproliferative activity (MTS assay), MDA-MB-231; conditions: MDA-MB-231 cells
Description: as §1, §2, §3, §4

MDA-MB-468 = assay: Antiproliferative activity (MTS assay), MDA-MB-468; conditions: MDA-MB-468 cells
Description: as §1, §2, §3, §4

SMILES | IC50 (Hela; Homo sapiens, HeLa, 96 h) [nM] | IC50 (K562; Homo sapiens, K562, 96 h) [nM] | IC50 (MDA-MB-231; Homo sapiens, MDA-MB-231, 96 h) [nM] | IC50 (MDA-MB-468; Homo sapiens, MDA-MB-468, 96 h) [nM] | IC50 (Hela; 96 hours) [nM] | IC50 (K562; 96 hours) [nM] | IC50 (MDA-MB-231; 96 hours) [nM] | IC50 (MDA-MB-468; 96 hours) [nM]
COc1ccc(-c2csc(NC(=O)c3cccnc3)n2)c(OC)c1 [Compound 15] | > 10000 | > 10000 | > 10000 | > 10000 |  |  |  | 
COCCCOc1cc(C)c(-c2csc(NC(=O)c3ccncc3)n2)c(C)c1 [Compound 110] | 110 | 100 | 90 | 130 |  |  |  | 
COc1cc(-c2csc(NC(=O)c3ccnnc3)n2)ccc1O [Compound 47] | > 10000 | > 10000 | > 10000 | > 10000 |  |  |  | 
COc1ccc(Oc2cc(C)c(-c3csc(NC(=O)c4ccncc4)n3)c(Cl)c2)cc1 [Compound 131] | 60 | 40 | 40 | 50 |  |  |  | 
N#Cc1ccc(C(=O)Nc2nc(-c3ccc(O)cc3)cs2)cc1 [Compound 56] | > 10000 | > 10000 | > 10000 | > 10000 |  |  |  | 
Cc1cc(C)c(-c2csc(NC(=O)c3cccnc3)n2)c(C)n1 [Compound 46] | > 10000 | > 10000 | 7410 | 7190 |  |  |  | 
COc1ccc(-c2csc(NC(=O)c3ccccn3)n2)cc1 [Compound 17] | > 10000 | > 10000 | > 10000 | > 10000 |  |  |  | 
Cc1cc(C)c(-c2csc(NC(=O)c3cc(Cl)nc(Cl)c3)n2)c(C)c1 [Compound 88] | > 10000 | 8300 | 7980 | 15500 |  |  |  | 
Cc1cc(C)c(-c2csc(NC(=O)c3ccnc(N(C)C)c3)n2)c(C)c1 [Compound 92] | > 10000 | 450 | 2210 | 3290 |  |  |  | 
Cc1cc(C)c(-c2csc(NC(=O)c3ccsc3)n2)c(C)c1 [Compound 33] | > 10000 | > 10000 | > 10000 | 790 |  |  |  | 
Cc1ccc(-c2csc(NC(=O)c3ccncc3)n2)cc1 [Compound 6] | 1050 | 1480 | 670 | 1140 |  |  |  | 
COc1ccc(Sc2cc(C)c(-c3csc(NC(=O)c4ccnc(F)c4)n3)c(C)c2)cc1 [Compound 126] | 40 | 20 | 30 | 50 |  |  |  | 
Cc1ccc(-c2nc(NC(=O)c3ccncc3)sc2C)cc1 [Compound 43] | > 10000 | > 10000 | > 10000 | > 10000 |  |  |  | 
Cc1cc(C)c(-c2csc(NC(=O)c3cc(F)nc(F)c3)n2)c(C)c1 [Compound 90] | 1150 | 990 | 800 | 1220 |  |  |  | 
Cc1ccc(-c2csc(NC(=O)c3cccnc3)n2)cc1 [Compound 28] | > 10000 | > 10000 | > 10000 | > 10000 |  |  |  | 
COc1cc(C)c(-c2csc(NC(=O)Nc3ccncc3)n2)c(C)c1 [Compound 67] | > 10000 | 820 | 570 | 780 |  |  |  | 
Cc1cc(C)c(-c2csc(NC(=O)c3ccnc(Cl)c3)n2)c(C)c1 [Compound 81] |  |  |  |  | 860 | 790 | 720 | 820
Cc1cc(C)c(-c2csc(NC(=O)c3ccc4[nH]nnc4c3)n2)c(C)c1 [Compound 106] | > 10000 | > 10000 | 4950 | > 10000 |  |  |  | 
Cc1cc(-c2ccccc2)cc(C)c1-c1csc(NC(=O)c2ccncc2)n1 [Compound 53] | 480 | 620 | 430 | 480 |  |  |  | 
O=C(Nc1nc(-c2c(F)cc(F)cc2F)cs1)c1ccncc1 [Compound 76] | 1120 | 940 | 540 | 1250 |  |  |  | 
COc1cc(-c2csc(NC(=O)c3cccnc3)n2)cc(OC)c1OC [Compound 20] | > 10000 | > 10000 | > 10000 | > 10000 |  |  |  | 
COc1ccc(-c2nc(NC(=O)c3cccnc3)sc2C)cc1 [Compound 14] | > 10000 | > 10000 | > 10000 | > 10000 |  |  |  | 
COc1ccc(-c2csc(NC(=O)c3ccncc3)n2)c(F)c1 [Compound 26] | > 10000 | 2430 | 6850 | 2250 |  |  |  | 
Cc1ccc(-c2nc(NC(=O)c3ccc(C#N)cc3)sc2C)cc1 [Compound 30] | > 10000 | > 10000 | > 10000 | > 10000 |  |  |  | 
